{"source": "patent US4603142A", "about": "“Cholesterol lowering method of use” (Wisconsin Alumni Research Foundation, priority 1984, dated 1986)", "key": {"Fatty Acid Synthetase [1]": {"test_system": "Fatty Acid Synthetase", "assay": "Hepatic fatty acid synthetase activity in 3-week-old broiler male chickens fed supplemented corn diet", "format": "in vivo, chicken", "conditions": "liver; for Fatty Acid Synthetase: mean ± SD, N = 9", "description": "These responses were attributed to the presence in the small grains of relatively high concentrations of beta-D-glucans and pentosans. A long-standing interest in lipid metabolism prompted us to examine certain lipogenic and cholesterolgenic enzymes in the tissues of these birds. Methods used for handling blood samples, preparing subcellular fractions of liver and assay procedures for beta-hydroxy-beta-methylglutaryl coenzyme A (HMG Co-A) reductase, fatty acid synthetase (FAS), plasma cholesterol and triglycerides and the statistical treatment of the data have been described [Qureshi AA et al. (1980): Regulation of lipid metabolism in chicken livers by dietary cereals, J Nutr 110:388-393].\nFor large scale preparation of these compounds, 10 grams of the petroleum ether soluble fraction of HPBF were dissolved in 10 ml petroleum ether and applied to a 90×3.5 cm silicic acid column (Bio-Silica, 100-200 mesh). The column was washed with 2,500 ml petroleum ether followed by stepwise elution with increasing amounts of ether in petroleum ether. Fraction 8 of the column corresponded to HPLC fraction 5. A concentration-dependent suppression of HMG Co-A reductase activity and enhancement of FAS activity was noted within this range. Serum total and LDL cholesterol levels also fell in a dose-dependent response. […] In a companion experiment, using the same control birds, the effect of cholesterol inhibitor I at 5 ppm is compared to the effect of the petroleum ether solubles of HPBF at 20% equivalent on weight gain, HMG Co-A reductase and FAS activities, serum cholesterol and serum triglyceride levels (Table 2). […] Serum triglyceride levels reflected the influence of the diet on FAS activity. […] Cholesterol inhibitor I was a more powerful suppressor of LDL cholesterol (Table 2).\n^1 Feeding period was 3 weeks; Time of killing was 0800; Data\nexpressed as mean ± SD; N = 9 chickens per group; HMGCoA reductase =\n^3 nmoles of NADPH oxidized per minute per mg of cytosolic protein."}, "Fatty Acid Synthetase [2]": {"test_system": "Fatty Acid Synthetase", "assay": "In vitro fatty acid synthetase activity in isolated hepatocytes of chicken", "format": "cell-based", "conditions": "incubation 15 minutes; for Fatty Acid Synthetase: means of two replicates", "description": "These observed effects on lipogensis and cholesterogenesis could be attributed to the chemical constituents of HPBF, but clearly could not be attributed to the water insoluble plant fibers because they were not present in the latter feeding trials. Moreover, these effects were also obtained in vitro using isolated hepatocytes from chickens and rats. […] Proc. 42:1973 (Abstr.)]. Conditions for the in vitro evaluation of the solvent extracts have been described [Qureshi AA et al. (1983): Inhibition of cholesterol and fatty acid biosynthesis in liver enzymes and chicken hepatocytes by polar fractions of garlic, Lipids 18:343-348].\nCholesterol inhibitor I was re-chromatographed by HPLC and the UV absorption spectrum obtained. Maximum absorption occurred at 292 nm. This purified fraction was used for high resolution mass spectrometric analysis. Several scans were made using ionization temperatures from 90-180 degrees Centigrade to increase the possibility of detecting impurities. The high resolution mass spectrometric analysis and measurements of different peaks gave a molecular ion peak at m/e 424 and main peaks at m/e 385, 205 and 165 corresponding to C29 H44 O2 (molecular formula) C25 H36 O2, C13 H17 O2 and C10 H13 O2 moieties, respectively, which are characteristic fragmentation moieties for d-alpha-tocotrienol. Lemon grass oil is a rich source of d-alpha-tocotrienol. This product and cholesterol inhibitor I at 20 ppm were compared with the petroleum ether soluble fraction of HPBF (20% equivalent HPBF) in a group of older male White Leghorn chickens (Table 3). The results shown on Table 3 confirm those previously recorded for petroleum ether solubles of HPBF and cholestrol inhibitor I. In a final experiment, the effects of cholestrol inhibitor I and lemon grass oil on hepatocyte HMG Co-A reductase and FAS activities were tested. Both components tested in the concentration range 5-100 microgram/ml, produced a concentration-dependent suppression of HMG Co-A reductase and concentration-dependent enhancement of FAS activity (Table 4).\n^1 Tenweek-old female chickens were fed standard cornsoy diet. They\nwere fasted for 48 hrs. and refed 72 hrs. prior to the preparation of\n^2 Incubation period was 15 minutes. Values represent means of two\nreplicates within incubation set.\n^4 nmoles of NADPH oxidized per minute per mg of cytosolic fraction."}, "FAS": {"target": "T1, FAS (Gallus gallus, UniProt P12276)", "T1 construct": "activity in isolated hepatocytes; endogenous in cells; host or cells: isolated hepatocytes", "T1 sequence (P12276 2-2512 limits assumed)": "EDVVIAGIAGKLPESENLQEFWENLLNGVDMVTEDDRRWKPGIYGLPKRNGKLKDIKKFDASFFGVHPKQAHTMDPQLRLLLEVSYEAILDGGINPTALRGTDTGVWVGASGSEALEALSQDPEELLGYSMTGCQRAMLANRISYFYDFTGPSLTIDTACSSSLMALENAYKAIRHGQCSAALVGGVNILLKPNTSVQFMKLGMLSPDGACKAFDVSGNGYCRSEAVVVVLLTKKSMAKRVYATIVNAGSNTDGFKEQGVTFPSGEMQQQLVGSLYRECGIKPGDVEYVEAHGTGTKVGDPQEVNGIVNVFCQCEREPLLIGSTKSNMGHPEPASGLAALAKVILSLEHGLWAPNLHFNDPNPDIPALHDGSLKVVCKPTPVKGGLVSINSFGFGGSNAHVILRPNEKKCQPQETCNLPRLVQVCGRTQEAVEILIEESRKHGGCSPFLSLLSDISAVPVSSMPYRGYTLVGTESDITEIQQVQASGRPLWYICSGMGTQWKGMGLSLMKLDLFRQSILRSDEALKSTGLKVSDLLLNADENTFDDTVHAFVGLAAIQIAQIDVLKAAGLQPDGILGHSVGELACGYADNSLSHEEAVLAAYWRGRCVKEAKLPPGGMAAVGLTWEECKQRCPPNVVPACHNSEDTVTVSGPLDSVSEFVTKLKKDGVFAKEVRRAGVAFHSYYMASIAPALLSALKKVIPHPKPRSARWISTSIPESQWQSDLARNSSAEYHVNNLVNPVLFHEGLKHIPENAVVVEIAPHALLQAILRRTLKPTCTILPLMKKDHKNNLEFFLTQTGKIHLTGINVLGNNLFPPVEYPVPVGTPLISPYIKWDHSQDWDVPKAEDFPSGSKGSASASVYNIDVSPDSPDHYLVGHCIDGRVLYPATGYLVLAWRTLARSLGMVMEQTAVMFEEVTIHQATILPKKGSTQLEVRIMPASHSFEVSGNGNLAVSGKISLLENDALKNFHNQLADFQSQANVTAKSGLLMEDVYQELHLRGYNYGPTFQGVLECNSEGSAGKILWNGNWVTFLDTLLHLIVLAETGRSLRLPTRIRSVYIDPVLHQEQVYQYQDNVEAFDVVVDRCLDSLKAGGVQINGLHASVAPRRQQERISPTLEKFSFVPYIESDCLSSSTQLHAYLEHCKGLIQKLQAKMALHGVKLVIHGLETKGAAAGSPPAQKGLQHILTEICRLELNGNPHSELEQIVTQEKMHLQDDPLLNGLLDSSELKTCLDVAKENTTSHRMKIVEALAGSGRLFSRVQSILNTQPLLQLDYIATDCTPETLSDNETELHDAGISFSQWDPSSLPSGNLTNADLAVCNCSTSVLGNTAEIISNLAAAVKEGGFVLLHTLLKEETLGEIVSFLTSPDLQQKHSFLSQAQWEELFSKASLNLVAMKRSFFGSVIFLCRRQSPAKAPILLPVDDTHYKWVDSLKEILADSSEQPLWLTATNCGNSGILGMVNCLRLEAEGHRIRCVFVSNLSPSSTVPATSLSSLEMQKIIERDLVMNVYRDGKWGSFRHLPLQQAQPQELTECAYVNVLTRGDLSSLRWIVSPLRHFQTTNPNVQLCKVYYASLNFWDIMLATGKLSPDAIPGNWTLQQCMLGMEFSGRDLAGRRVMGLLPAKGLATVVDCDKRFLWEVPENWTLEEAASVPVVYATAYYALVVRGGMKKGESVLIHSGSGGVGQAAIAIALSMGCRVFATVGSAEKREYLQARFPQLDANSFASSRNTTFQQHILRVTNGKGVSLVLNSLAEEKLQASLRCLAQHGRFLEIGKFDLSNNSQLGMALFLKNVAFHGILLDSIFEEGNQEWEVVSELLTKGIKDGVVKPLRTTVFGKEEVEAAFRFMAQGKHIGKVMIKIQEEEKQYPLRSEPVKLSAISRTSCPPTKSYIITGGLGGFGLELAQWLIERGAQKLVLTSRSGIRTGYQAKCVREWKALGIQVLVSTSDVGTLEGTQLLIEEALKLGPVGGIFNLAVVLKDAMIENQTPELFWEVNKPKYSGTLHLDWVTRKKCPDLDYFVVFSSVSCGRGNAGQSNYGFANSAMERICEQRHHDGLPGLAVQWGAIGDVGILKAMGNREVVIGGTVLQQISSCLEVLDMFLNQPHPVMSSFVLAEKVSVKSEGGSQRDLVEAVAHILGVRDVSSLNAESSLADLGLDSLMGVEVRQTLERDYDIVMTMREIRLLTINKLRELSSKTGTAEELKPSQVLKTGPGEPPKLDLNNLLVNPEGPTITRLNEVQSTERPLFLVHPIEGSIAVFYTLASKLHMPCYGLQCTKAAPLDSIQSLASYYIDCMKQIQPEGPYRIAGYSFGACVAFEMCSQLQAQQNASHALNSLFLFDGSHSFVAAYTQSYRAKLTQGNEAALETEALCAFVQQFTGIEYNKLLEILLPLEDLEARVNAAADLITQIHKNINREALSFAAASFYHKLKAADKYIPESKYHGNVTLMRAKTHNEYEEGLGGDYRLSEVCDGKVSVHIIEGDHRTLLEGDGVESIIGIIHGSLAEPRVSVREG", "assay": "HPLC fractions checked in vitro for effect on FAS in isolated hepatocytes", "format": "cell-based", "conditions": "HPLC fractions of petroleum ether solubles"}, "[3]": {"conditions": "2.5 ppm in corn diet, fed 3 weeks"}, "[4]": {"conditions": "5.0 ppm in corn diet, fed 3 weeks"}, "[5]": {"conditions": "10.0 ppm in corn diet, fed 3 weeks"}, "[6]": {"conditions": "15.0 ppm in corn diet, fed 3 weeks"}, "[7]": {"conditions": "20.0 ppm in corn diet, fed 3 weeks"}}, "data": [{"smiles": "CC(C)=CCC/C(C)=C/CC/C(C)=C/CC[C@]1(C)CCc2c(C)c(O)c(C)c(C)c2O1", "note": "[Cholesterol inhibitor I, 2,5,7,8-tetramethyl-2 (4,8, 12-trimethyltrideca-3,7, 11-trienyl)chroman-6-ol]", "values": [{"measurement": "Fatty Acid Synthetase, percentage of control", "setting": "Fatty Acid Synthetase [1]; [3]", "result": "118 Percentage of respective contr"}, {"measurement": "Fatty Acid Synthetase", "setting": "Fatty Acid Synthetase [1]; [3]", "result": "190 ± 12 nmoles of NADPH oxidized per m"}, {"measurement": "Fatty Acid Synthetase, percentage of control", "setting": "Fatty Acid Synthetase [1]; [4]", "result": "120 Percentage of respective contr"}, {"measurement": "Fatty Acid Synthetase", "setting": "Fatty Acid Synthetase [1]; [4]", "result": "202 ± 10 nmoles of NADPH oxidized per m"}, {"measurement": "Fatty Acid Synthetase, percentage of control", "setting": "Fatty Acid Synthetase [1]; [5]", "result": "125 Percentage of respective contr"}, {"measurement": "Fatty Acid Synthetase", "setting": "Fatty Acid Synthetase [1]; [5]", "result": "210 ± 15 nmoles of NADPH oxidized per m"}, {"measurement": "Fatty Acid Synthetase, percentage of control", "setting": "Fatty Acid Synthetase [1]; [6]", "result": "130 Percentage of respective contr"}, {"measurement": "Fatty Acid Synthetase", "setting": "Fatty Acid Synthetase [1]; [6]", "result": "218 ± 17 nmoles of NADPH oxidized per m"}, {"measurement": "Fatty Acid Synthetase, percentage of control", "setting": "Fatty Acid Synthetase [1]; [7]", "result": "140 Percentage of respective contr"}, {"measurement": "Fatty Acid Synthetase", "setting": "Fatty Acid Synthetase [1]; [7]", "result": "235 ± 18 nmoles of NADPH oxidized per m"}, {"measurement": "Fatty Acid Synthetase", "setting": "Fatty Acid Synthetase [1]; corn diet + 5 ppm (Table 2)", "result": "215 ± 18 nmoles of NADPH oxidized per m"}, {"measurement": "Fatty Acid Synthetase, percentage of control", "setting": "Fatty Acid Synthetase [2]; 5 μg/ml", "result": "122 Percentage of respective contr"}, {"measurement": "Fatty Acid Synthetase", "setting": "Fatty Acid Synthetase [2]; 5 μg/ml", "result": "88 nmoles of NADPH oxidized per m"}, {"measurement": "Fatty Acid Synthetase, percentage of control", "setting": "Fatty Acid Synthetase [2]; 10 μg/ml", "result": "135 Percentage of respective contr"}, {"measurement": "Fatty Acid Synthetase", "setting": "Fatty Acid Synthetase [2]; 10 μg/ml", "result": "97 nmoles of NADPH oxidized per m"}, {"measurement": "Fatty Acid Synthetase, percentage of control", "setting": "Fatty Acid Synthetase [2]; 15 μg/ml", "result": "156 Percentage of respective contr"}, {"measurement": "Fatty Acid Synthetase", "setting": "Fatty Acid Synthetase [2]; 15 μg/ml", "result": "112 nmoles of NADPH oxidized per m"}, {"measurement": "Fatty Acid Synthetase, percentage of control", "setting": "Fatty Acid Synthetase [2]; 20 μg/ml", "result": "175 Percentage of respective contr"}, {"measurement": "Fatty Acid Synthetase", "setting": "Fatty Acid Synthetase [2]; 20 μg/ml", "result": "126 nmoles of NADPH oxidized per m"}, {"measurement": "Fatty Acid Synthetase, percentage of control", "setting": "Fatty Acid Synthetase [2]; 25 μg/ml", "result": "188 Percentage of respective contr"}, {"measurement": "Fatty Acid Synthetase", "setting": "Fatty Acid Synthetase [2]; 25 μg/ml", "result": "135 nmoles of NADPH oxidized per m"}, {"measurement": "Fatty Acid Synthetase, percentage of control", "setting": "Fatty Acid Synthetase [2]; 50 μg/ml", "result": "188 Percentage of respective contr"}, {"measurement": "Fatty Acid Synthetase", "setting": "Fatty Acid Synthetase [2]; 50 μg/ml", "result": "148 nmoles of NADPH oxidized per m"}, {"measurement": "Fatty Acid Synthetase, percentage of control", "setting": "Fatty Acid Synthetase [2]; 100 μg/ml", "result": "214 Percentage of respective contr"}, {"measurement": "Fatty Acid Synthetase", "setting": "Fatty Acid Synthetase [2]; 100 μg/ml", "result": "154 nmoles of NADPH oxidized per m"}, {"measurement": "Effect on activities of FAS", "setting": "FAS", "result": "significant increase"}]}]}
